Assay results from patent publication US12677850B2, “Stevia blends containing rebaudioside B” (Tate & Lyle Solutions USA LLC, priority 2011, dated 2026).

Tests used:
[1] = previous reports; cited from earlier work
[2] = type: physicochemical; conditions: pH 3
Procedure: To determine the solubility of rebaudioside A and rebaudioside B in certain solutions, four stock solutions were prepared. A 10× concentrated citric acid/sodium citrate pH 3 stock buffer solution was prepared by dissolving 0.9 g anhydrous citric acid and 0.26 g of sodium citrate dihydrate in water to make 100 mL of buffer (0.047 M citric acid+0.0088 M sodium citrate). A 2500 ppm (nominal) solution of rebaudioside A was prepared by dissolving 0.125 g of GLG RA 97 to make 50 mL of solution. A 2500 ppm (nominal) solution of stevioside was prepared by dissolving 0.125 g of GLG STV 97 to make 50 mL of solution. A 1000 ppm (nominal) solution of rebaudioside B was prepared by diluting 56 mL of a solution assayed at 1790 ppm to make 100 mL of solution.
These solutions were mixed as 1 mL total amounts by micropipetting the volumes, in microliters, into 1.5 mL microcentrifuge tubes As shown in Table 14.
After standing for […] (~100 hours), the tubes were spun in a bench top microcentrifuge to pelletize the precipitate. The clear supernate was sampled into vials and assayed for glycosides using a reverse phase high performance liquid chromatograph (HPLC) gradient method with UV detection (Waters 2695 Separations Module equipped with a Waters 2487 Dual X Absorbance Detector or equivalent instrumentation) that is summarized in Table 15. The HPLC conditions were as follows:
The supernatant data collected from the HPLC were processed using DESIGN EXPERT 8 software. Briefly, the data were entered into the program as “factor” data as a 2 factor-5 level general factorial design as the nominal data which were then converted to numerical data and replaced by the actual HPLC results. The software then selected a model that predicted the concentration (solubility) of rebaudioside B as a function of the concentration of rebaudioside A and stevioside in the supernatant. The software also calculated a number of statistical factors that indicated the significance of the model parameters.

solubility [2]: limited
Substance: rebaudioside B
sweetness relative to rebaudioside A [1]: one-half to two-thirds
